Patent publication US9879050B2, “Substituted urea depsipeptide analogs as activators of the CLPP endopeptidase” (priority 2013, dated 2018)
In brackets after ≈: the same amount, converted by molar mass. Read-outs that look alike come from different tables or passages of the source. *1 amine or outer side, *2 acyl side, *3 side chain or, on linkers, in order; H or OH if unused. Where a SMILES comes first, the peptide text is derived from it. Bridges are numbered along the chain shown (N, C = ends). [ ]: non-standard residue; d: D form. The star is where a group is joined. Phe(3,5-F2) = N[C@@H](Cc1cc(F)cc(F)c1)C(=O)O; Pro(4S-Me) = C[C@@H]1CN[C@H](C(=O)O)C1; NH(4-Et-phenyl) = CCc1ccc(N*)cc1; aThr = C[C@H](O)[C@H](N)C(=O)O; Pip = O=C(O)[C@@H]1CCCCN1; CO = O=C([*:1])[*:2]

Assays:
[1] = test system: E. coli K12ΔtolC; test: Minimal inhibitory concentration, microbroth dilution; format: cell-based
Method in brief: (§1)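 Following CLSI M7-A7 microbroth dilution, twofold serial dilutions of compound (top final concentration 200 μM) were combined with an equal volume of broth inoculum at about 10^5 cfu/mL. Plates were incubated aerobically at 37 °C overnight, and the MIC was the lowest concentration preventing visible growth.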

[2] = test system: S. pneumoniae DAW27; test: as above; format: cell-based
Method in brief: as §1

[3] = test system: S. aureus USA 300 ΔClpP; test: as above; format: cell-based, Staphylococcus aureus; settings: ClpP inactivated strain
Method in brief: as §1

[4] = target: T1, Sa-ClpP (Staphylococcus aureus, UniProt Q2G036); test: ADEP displacement fluorescence polarization assay; format: binding, S. aureus; settings: 1 μM Sa-ClpP, 50 nM FP probe ADEP 2591; read-out: ADEP Displacement IC50
T1 construct: made in house; host or cells: E. coli BL21 (DE3)
T1 sequence (Q2G036 whole entry): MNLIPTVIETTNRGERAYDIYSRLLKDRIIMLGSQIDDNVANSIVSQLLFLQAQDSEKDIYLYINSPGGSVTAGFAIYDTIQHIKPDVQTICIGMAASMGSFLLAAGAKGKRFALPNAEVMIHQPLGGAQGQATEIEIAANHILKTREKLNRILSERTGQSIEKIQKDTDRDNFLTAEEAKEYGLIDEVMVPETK
Method in brief: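 Displacement of TAMRA-labelled ADEP 2591 probe (50 nM) from 1 μM Sa-ClpP, pre-equilibrated 1 h in Tris·HCl pH 8.0 with 2% DMSO, then 120 min at room temperature with compound, triplicate. Polarization (mP) read ex 530/em 579 nm, normalised to 20 μM ADEP 2378 and DMSO controls; four-parameter fit.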

[5] = target: T2, S. aureus ClpP (Sa-ClpP) (Staphylococcus aureus, UniProt Q2G036); test: ClpP activation, casein-BODIPY digestion assay (first described method); format: biochemical; settings: first described ClpP activation assay (**); 10 μM saClpP, 25 μg/ml BODIPY FL casein, 37° C.; read-out: ClpP Activation EC50
T2 construct: made in house; host or cells: E. coli BL21 (DE3)
T2 sequence (Q2G036 whole entry): as above
Protocol: The compounds were assayed in a casein digestion assay in order to determine their effect on ClpP activation. Briefly, the assay was carried out using S. aureus ClpP (“Sa-ClpP”) overexpressed in E. coli BL21 (DE3) and purified in a two-step process. Purity of the protein was assessed through SDS PAGE analysis. EC50 evaluations were conducted in triplicate in a 20 μl assay format using a method adapted from Maurizi et al. (Methods Enzymol. (1994) 244:314-331.). Each well contained 10 μM saClpP, 25 μg/ml BODIPY FL casein (Invitrogen Corporation, San Diego, Calif.), and test compound in concentrations ranging between 0-100 μM in assay buffer (50 mM Tris pH 8, 200 mM KCl, and 1 mM TCEP). The reaction took place at 37° C. Fluorescence (excitation 485 nm; emission 528 nm) was measured in five minute intervals over a 45 min period using a BioTek HT fluorescence microplate reader (BioTek Instruments, Inc., Winooski, Vt.). Velocity of each reaction was calculated and data was fit to a dose response curve using GraphPad Prism® software (GraphPad Software, Inc., La Jolla, Calif.). EC50 is the effective concentration of compound which causes 50% activation of S. aureus ClpP in the foregoing BODIPY FL casein assay.

[6] = Cytotoxicity assay, CellTiter-Glo cell viability; format: cell-based; settings: African green monkey
Method in brief: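 Vero cells seeded overnight at 37 °C in DMEM with 10% FBS, then exposed to serial dilutions of compound for 72 h. Viability read by CellTiter-Glo luminescence; IC50 from duplicates, given as the range of two independent experiments.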

[7] = target: T1, Sa-ClpP; test: ClpP activation, EnzCheck Protease Assay with Bodipy-FL casein (second described method); format: biochemical, S. aureus; settings: read-out: ClpP Activation EC50 (converted)
Method in brief: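 Sa-ClpP (2 μM in master mix) with Bodipy-FL casein (2 μM in master mix) in Tris-HCl pH 8.0, 0.01% Triton X-100, compounds in 2% DMSO, triplicate. Fluorescence (ex 485/em 520 nm) followed 30 min; degradation slopes normalized to ADEP4 and DMSO controls, EC50 and % activation by four-parameter fit.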

[8] = test system: B. subtilis ATCC 23857; test: Minimal inhibitory concentration, microbroth dilution; format: cell-based; settings: Bacillus subtilis, ATCC23857, read-out: Minimal Inhibitory Concentration B. subtilis ATCC 23857
Method in brief: as §1

[9] = test system: S. aureus ATCC 29213; test: as above; format: cell-based; settings: Staphylococcus aureus, ATCC29213, read-out: Minimal Inhibitory Concentration S. aureus ATCC 29213
Method in brief: as §1

[10] = test system: E. faecails ATCC 33186; test: as above; format: cell-based; settings: Enterococcus faecalis, ATCC33186, read-out: Minimal Inhibitory Concentration E. faecails ATCC 33186
Method in brief: as §1

[11] = test system: S. pyogenes ATCC 700294; test: as above; format: cell-based; settings: Streptococcus pyogenes, ATCC700294, read-out: Minimal Inhibitory Concentration S. pyogenes ATCC 700294
Method in brief: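 Twofold serial dilutions in broth per CLSI M7-A7 microbroth dilution, incubated aerobically overnight at 37° C. MIC read visually as lowest concentration preventing bacterial growth.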

[12] = Streptococcus pneumoniae, DAW27; read-out: Minimal Inhibitory Concentration S. pneumoniae DAW27
[13] = Vero cells, 72 hours, read-out: Cytotoxicity IC50

Row | SMILES | Minimal Inhibitory Concentration E. coli K12ΔtolC [1] [µM] | IC50 [4] [µM] | EC50 [5] [µM] | EC50 [7] [µM] | IC50 at 72 h [6] [µM] | further results
1 | CN(C)[C@@H]1C(O)=C(C(N)=O)C(=O)[C@@]2(O)C(O)=C3C(=O)c4c(O)cccc4[C@@](C)(O)[C@H]3C[C@@H]12 [Tetracycline, tetracycline, reference compound] | 12.5 | – | – | – | – | MIC [2, 12]: 0.1 µM (≈ 0.0444 µg/mL)
2 | O=C(N[C@H](CO)[C@H](O)c1ccc([N+](=O)[O-])cc1)C(Cl)Cl [Chloroamphenicol, chloramphenicol, reference compound] | 0.78 | – | – | – | – | Minimal Inhibitory Concentration S. aureus USA 300 ΔClpP [3]: 6.3 µM
3 | CCc1ccc(NC(=O)N[C@@H](Cc2cc(F)cc(F)c2)C(=O)N[C@@H]2C(=O)N3CCC[C@H]3C(=O)N3CCCC[C@H]3C(=O)N[C@@H](C)C(=O)N3C[C@@H](C)C[C@H]3C(=O)O[C@H]2C)cc1 [Compound 21, (S)-3-(3,5-Difluorophenyl)-2-(3-(4-Ethylphenyl)Ureido)-N-((2R,6S,8aS,14aS,20S,21S,23aS)-2,6,21-Trimethyl-5,8,14,19,23-Pentaoxooctadecahydro-1H,5H,14H,19H-Pyrido[2,1-I]Dipyrrolo[2,1-C:2′,1′-L][1]Oxa[4,7,10,13]Tetraazacyclohexadecin-20-Yl)Propanamide] ({NH(4-Et-phenyl)-CO}-[Phe(3,5-F2)][aThr]P[Pip]A[Pro(4S-Me)]; ester 2-C) | – | 7.3 ± 0.3 | 1.1 ± 0.3 | 0.33 | – | IC50 at 72 h ([6]; Vero kidney epithelial cells (ATCC CCL-81), Vero cells, 72 hours, read-out: Cytotoxicity IC50): 68.5 ± 6.6 µM
4 | C[C@@H]1C[C@H]2C(=O)OC[C@H](NC(=O)[C@H](Cc3ccccc3)NC(=O)Nc3ccc(OC(F)(F)F)cc3)C(=O)N3CCC[C@H]3C(=O)N3CCCC[C@H]3C(=O)N[C@@H](C)C(=O)N2C1 [Compound 2, (S)—N-((2R,6S,8aS,14aS,20S,23aS)-2,6-Dimethyl-5,8,14,19,23-Pentaoxooctadecahydro-1H,5H,14H,19H-Pyrido[2,1-I]Dipyrrolo[2,1-C:2′,1′-L][1]Oxa[4,7,10,13]Tetraazacyclohexadecin-20-Yl)-3-Phenyl-2-(3-(4-(Trifluoromethoxy)Phenyl)Ureido)Propanamide] | 12.5 | 7.66 ± 0.3 | 2.6 ± 0.4 | 0.5 | 88.3 ± 15.2 | –
5 | C[C@@H]1C[C@H]2C(=O)OC[C@H](NC(=O)[C@H](Cc3ccccc3)NC(=O)Nc3ccc4ccn(C)c4c3)C(=O)N3CCC[C@H]3C(=O)N3CCCC[C@H]3C(=O)N[C@@H](C)C(=O)N2C1 [Compound 12, (S)—N-((2R,6S,8aS,14aS,20S,23aS)-2,6-Dimethyl-5,8,14,19,23-Pentaoxooctadecahydro-1H,5H,14H,19H-Pyrido[2,1-I]Dipyrrolo[2,1-C:2′,1′-L][1]Oxa[4,7,10,13]Tetraazacyclohexadecin-20-Yl)-2-(3-(1-Methyl-1H-Indol-6-Yl)Ureido)-3-Phenylpropanamide] | – | 6.81 ± 0.4 | 3.2 ± 0.5 | – | – | MIC [8]: 2.5 µM (≈ 1.99 µg/mL); MIC [9]: 2.5 µM (≈ 1.99 µg/mL); MIC [10]: 1.25 µM (≈ 0.996 µg/mL); MIC ([2]; Streptococcus pneumoniae, DAW27, read-out: Minimal Inhibitory Concentration S. pneumoniae DAW27): 0.3 µM (≈ 0.239 µg/mL); MIC [11]: 0.6 µM (≈ 0.478 µg/mL); IC50 at 72 h [6, 13]: 90 ± 7.6 µM
6 | NC[C@H]1O[C@H](O[C@H]2[C@H](O)[C@@H](O[C@H]3O[C@H](CO)[C@@H](O)[C@H](N)[C@H]3O)[C@H](N)C[C@@H]2N)[C@H](O)[C@@H](O)[C@@H]1O [Kanamycin, kanamycin, reference compound] | 0.4 | – | – | – | – | MIC [2, 12]: 25 µM (≈ 12.1 µg/mL)
7 | COc1cccc(NC(=O)N[C@@H](Cc2ccccc2)C(=O)N[C@H]2COC(=O)[C@@H]3C[C@@H](C)CN3C(=O)[C@H](C)NC(=O)[C@@H]3CCCCN3C(=O)[C@@H]3CCCN3C2=O)c1 [Compound 8, (S)—N-((2R,6S,8aS,14aS,20S,23aS)-2,6-Dimethyl-5,8,14,19,23-Pentaoxooctadecahydro-1H,5H,14H,19H-Pyrido[2,1-I]Dipyrrolo[2,1-C:2′,1′-L][1]Oxa[4,7,10,13]Tetraazacyclohexadecin-20-Yl)-2-(3-(3-Methoxyphenyl)Ureido)-3-Phenylpropanamide] | 200 | 16.3 ± 0.8 | 3 ± 0.4 | 1.3 | > 100 | –
8 | CCc1ccc(NC(=O)N[C@@H](Cc2ccccc2)C(=O)N[C@H]2COC(=O)[C@@H]3C[C@@H](C)CN3C(=O)[C@H](C)NC(=O)[C@@H]3CCCCN3C(=O)[C@@H]3CCCN3C2=O)cc1 [Compound 4, (S)—N-((2R,6S,8aS,14aS,20S,23aS)-2,6-Dimethyl-5,8,14,19,23-Pentaoxooctadecahydro-1H,5H,14H,19H-Pyrido[2,1-1]Dipyrrolo[2,1-C:2′,1′-L][1]Oxa[4,7,10,13]Tetraazacyclohexadecin-20-Yl)-2-(3-(4-Ethylphenyl)Ureido)-3-Phenylpropanamide] | 25 | 29 ± 2.1 | 1.4 ± 0.1 | 5.5 | 73.7 ± 8.4 | –
9 | C[C@H]1C[C@H]2C(=O)O[C@@H](C)[C@H](NC(=O)[C@H](Cc3cc(F)cc(F)c3)NC(=O)Nc3ccc(OC(F)(F)F)cc3)C(=O)N3CCC[C@H]3C(=O)N3CCCC[C@H]3C(=O)N[C@@H](C)C(=O)N2C1 [Compound 22, (S)-3-(3,5-Difluorophenyl)-2-(3-(4-(Trifluoromethoxy)Phenyl)Ureido)-N-((2R,6S,8aS,14aS,20S,21S,23aS)-2,6,21-Trimethyl-5,8,14,19,23-Pentaoxooctadecahydro-1H,5H,14H,19H-Pyrido[2,1-I]Dipyrrolo[2,1-C:2′,1′-L][1]Oxa[4,7,10,13]Tetraazacyclohexadecin-20-Yl)Propanamide] | – | 8.9 ± 0.3 | 3.6 ± 0.4 | 0.32 | – | IC50 at 72 h [6, 13]: 52.3 ± 7.7 µM
10 | CCc1cccc(NC(=O)N[C@@H](Cc2ccccc2)C(=O)N[C@H]2COC(=O)[C@@H]3C[C@@H](C)CN3C(=O)[C@H](C)NC(=O)[C@@H]3CCCCN3C(=O)[C@@H]3CCCN3C2=O)c1 [Compound 10, (S)—N-((2R,6S,8aS,14aS,20S,23aS)-2,6-Dimethyl-5,8,14,19,23-Pentaoxooctadecahydro-1H,5H,14H,19H-Pyrido[2,1-1]Dipyrrolo[2,1-C:2′,1′-L][1]Oxa[4,7,10,13]Tetraazacyclohexadecin-20-Yl)-2-(3-(3-Ethylphenyl)Ureido)-3-Phenylpropanamide] | – | 13.6 ± 1.7 | 1.5 ± 0.6 | 0.9 ± 0.018 | 74.8 ± 4.6 | –
